Experimental data taken from patent US9180107B2 (NANOPHARMACEUTICALS LLC, priority 2009, dated 2015).

Key:
[1] = tested on: Human adenoid cystic carcinoma TGS112T cells; assay: [3H]-thymidine incorporation; format: cell-based; conditions: 10^−7 M, 24 h
Description: TGS112T cells were seeded in 24-well trays and exposed to 10% hormone-depleted FBS-supplemented medium for 2 d, then treated with 0.25% hormone-depleted FBS-supplemented medium prior to starting the experiments. Aliquots of cells were treated with T4, tetrac or nano-tetrac as indicated, as well as 1 μCi [^3H]-thymidine (final concentration, 13 nM) for 24 h. Cells were then washed twice with cold PBS. TCA (5%, 1 mL) was added and the plate was held at 4° C. for 30 min. The precipitate was washed twice with cold ethanol; 2% SDS (1 mL) was added to each well and the TCA-precipitable radioactivity was quantitated in a liquid scintillation counter.
(§1) Human adenoid cystic carcinoma TGS112T cells were cultured in medium that contained 0.25% hormone-stripped serum for 2 d and then treated with 10^−7 M tetrac or nano-tetrac for 30 min prior institution of 10^−7 M T4 treatment for 24 h. Nuclear proteins were separated by SDS-PAGE followed by western blot analysis with proliferating-cell nuclear antigen (PCNA) antibody. Thyroid hormone-induced PCNA accumulation was inhibited by tetrac. (See FIG. 6A). […] (See FIG. 6A). Inhibition of thyroid hormone-induced proliferation was confirmed by inhibition by tetrac and nano-tetrac of thyroid hormone-induced accumulation and [^3H]-thymidine incorporation. (See FIG. 6B). […] (See FIG. 6B). […] The effect of nano-tetrac and tetrac on cell proliferation was examined by counting TGS112T cells which were treated daily with 10^−6 M tetrac or 10^−6 M nano-tetrac. […] (See FIG. 6C).

[2] = tested on: Human adenoid cystic carcinoma TGS112T cells; assay: PCNA western blot (thyroid hormone-induced proliferation); format: cell-based; conditions: 10^−7 M, 24 h
Text: The techniques have been described in a number of publications. (See Davis et al., 2006. Cancer Res. 66:7270-7275; Lin et al., 2007. Steroids. 72:180-187; Lin et al., 2008. Carcinogenesis. 29:62-69; and Davis et al., 2004. Circ Res. 94:1500-1506, each of which is herein incorporated by reference in its entirety). Nucleoproteins were separated on discontinuous SDS-PAGE (9% gels) and the proteins transferred by electroblotting to nitrocellulose membranes (Millipore, Bedford, Mass.). After blocking with 5% milk in Tris-buffered saline containing 0.1% Tween, the membranes were incubated with selected primary antibodies overnight. The secondary antibodies were either goat anti-rabbit IgG (1:1000, Dako, Carpenteria, Calif.) or rabbit anti-mouse IgG (1:1000, Dako), depending upon the origin of the primary antibody. Immunoreactive proteins were then detected by chemiluminescence.
as §1

## N[C@@H](Cc1cc(I)c(Oc2cc(I)c(O)c(I)c2)c(I)c1)C(=O)O [T4, L-thyroxine, reference compound]
[1]
  effect of agent alone on thymidine incorporation: increased thymidine incorporation
[2]
  Proliferation of TGS112T cells (agent alone): stimulated
